From patent US9605013B2, “Derivatives of hemin with antibacterial and antiviral activity” (OBSCHESTVO S OGRANICHENNOI OTVETSTVENNOSTIYU …, priority 2011, dated 2017) come the findings set out here.

In data set [1] the test system is Enterococcus faecalis No. 559. Put plainly: Antibacterial specific activity, twofold dilutions, visual growth evaluation. Format: cell-based. The following applies: E. faecalis 559; 36° C., 24 hours. The procedure: (§1) The specific activity of compounds also was determined against bacteria strains such as Staphylococcus aureus No. 25923 ATCC (American Type Culture Collection); Staphylococcus aureus No. 100 KC; Staphylococcus epidermidis No. 533; Enterococcus faecalis No. 559; Enterococcus faecium No. 569, Staphylococcus aureus No. 5 (MRSA), Staphylococcus aureus No. 3797 (MRSA). Staphylococcus aureus was cultured on the Trypticase Soy Agar (BBL) commercially available dry medium. Enterococcus faecalis was cultured on the Columbia Agar (BBL) commercially available dry medium. These media were sterilized by autoclaving at 121° C. for 15 min. Bacterial inoculum was constant and was 5×10^5 CFU/ml (10^5 CFU/0.2 ml). For water-soluble compounds, wells from 2nd through 8th were added with the solvent (water) in an amount of 15 μL per well, then the 1st well was added with 30 μL of the stock solution of the tested compound in […] with a concentration of […], and the concentration was adjusted to 0.007×10^3 M by serial twofold dilutions. A 10-μL portion was taken from every well, and 190 μL of the bacterial culture (10^5 CFU) was added per well. For DMSO-soluble compounds, wells from 2nd through 8th were added with the solvent (DMSO) in an amount of 10 μL per well, then the 1st well was added with 20 μL of the stock solution of the tested compound in […] with a concentration of […], and the concentration was adjusted to 0.039×10^3 M by serial twofold dilutions. A 2-μL portion was taken from each well, and 198 μL of the bacterial culture (10^5 CFU) was added per well.
(§2) The control comprised wells free of tested compounds (culture growth control). In addition, purity control of nutritional media and solvents was used. Plates were incubated in a thermostat at 36° C. for 24 hours.
(§3) Culture growth was evaluated visually by comparison of how microorganisms grew in the presence of tested compounds and in the absence of them. MIC was set equal to the last dilution of a tested agent which suppressed bacterial culture growth.

The test system of another data set is Escherichia coli 4300. The description is as above. The data set is classed as cell-based. The following applies: E. coli 4300; 36° C., 24 hours. As to the method: [Worded in the source for another organism; this organism is reported under the same test.] as §1, §2, §3
Data set [2] concerns Staphylococcus aureus No. 100 KC. The data set is described as above. The data set is classed as cell-based. Conditions: S. aureus 100 KC; 36° C., 24 hours. As to the method: as §1, §2, §3
The subject of data set [3] is Staphylococcus aureus No. 25923 ATCC. Described as above. The following applies: S. aureus 25923; 36° C., 24 hours. The data set is classed as cell-based. The procedure: as §1, §2, §3
Data set [4] deals with Staphylococcus aureus No. 3797 (MRSA). Described as above. The following applies: St. aur No. 3797 MRSA; 36° C., 24 hours. Format: cell-based. As to the method: as §1, §2, §3
For data set [5], the system named is Staphylococcus aureus No. 5 (MRSA). The description is as above. Format: cell-based. Conditions: St. aur No. 5 MRSA; 36° C., 24 hours. The procedure:
as §1, §2, §3

In data set [6] the test system is Staphylococcus epidermidis No. 533. The description is as above. Format: cell-based. The following applies: S. epidermis 533; 36° C., 24 hours. As to the method:
as §1, §2, §3

Data set [7] has as its system Vancomycin-resistant Enterococcus faecium 569. The data set is described as above. Conditions: Vancomycin-resistant E. faecium 569; 36° C., 24 hours. Format: cell-based. As to the method: as §1, §2, §3
Data set [8] concerns Bacillus subtilis BKM B-501. Put plainly: Antibacterial activity, serial dilutions in liquid MH medium. The data set is classed as cell-based. The procedure:
(§4) The antibacterial activity of the compounds was determined against strains of gram-positive bacteria such as Staphylococcus aureus 209P, Enterococcus faecalis BKM B-871, Micrococcus luteus BKM Ac-2230, Bacillus subtilis BKM B-501, and gram-negative bacteria such as Pseudomonas aeruginosa PAO1 and Escherichia coli KM MGU C-600. BKM strains were acquired from the All-Russia Collection of Microorganisms at the Institute for Biochemistry and Physiology of Microorganisms, Russian Academy of Sciences. Strain Staphylococcus aureus 209P was acquired from the Collection of Microorganisms at the Department of microbiology of the Faculty of Biology of Lomonosov Moscow State University, and Pseudomonas aeruginosa PAO1 was acquired from the Collection of Microorganisms at the Institute of Bioorganic Chemistry of the Russian Academy of Sciences.
(§5) The main parameters characterizing the antibacterial activity are the minimal inhibitory concentration (MIC) and minimal bactericidal concentration (MBC). […] MBC is the least concentration that causes the death of all cells.
(§6) MIC was quantified by inhibiting culture growth in a liquid medium with serial dilutions of compounds using a modified procedure [Amsterdam, D., 1966. “Susceptibility testing of antimicrobials in liquid media,” pp. 52-111. In Loman, V., ed. Antibiotics in laboratory medicine, 4th ed. Williams and Wilkins, Baltimore].
(§7) Bacteria were cultured and tested on an MH liquid medium (Mueller-Hinton medium: a dry extract of beef broth, 4 g/L; starch, 1.5 g/L; casein hydrolyzate, 17.5 g/L; Sigma-Fluka Catalog No. 70192) at 37° C., 100% humidity, and under stirring. Cultures (within 4 to 7 passages after thawing) in the exponential growth phase were used for tests.
(§8) All tested compounds absorb light at 595 nm, a wavelength used for evaluating bacterial culture growth. Therefore, a correction for absorption was applied in estimating the optical density of bacterial suspensions for each compound with account for its concentration in the well. Bacterial growth inhibition (GI) as percentage after 20 hours of incubating cells with compounds was derived from the optical density (A) measured in every well at a wavelength of 595 nm using the equation: GIi=[(Act−Ac0)−(Ait−Ai0)]×100/(Act−Ac0), (1) wherein the subscripts have the following meanings: i denotes the well number, c denotes a control well with bacteria whereto the tested compound is not inserted, 0 refers to the measurement taken immediately once the tested compound was inserted to the well, and t refers to the measurement taken 20 hours after the compound was inserted.
(§9) The protocol for the determination of experimental antibacterial activity of the tested compounds was as follows. A cryovial with the test strain culture in a medium with 7% DMSO stored in liquid nitrogen, was rapidly defrosted, and 1.5 mL of the fresh MH medium was inoculated with 100 μL of the cell suspension. Cells were grown for one day at 37° C. and stirred on an orbital shaker at 150 rpm. The morphologic features of the strain and the absence of contamination with foreign bacteria were verified by: (a) inoculation on an agarized (15 g/L agar) MH medium and observation of the shape and color of the grown colonies and (b) examination of characteristic morphologic features under a microscope (Mikmed-2, LOMO, Russia) equipped with a 40× objective lens. Further, the bacteria were cultured in 1 mL of the liquid MH medium at 37° C. under stirring. The cells were reseeded every day. Cell cultures were used in tests starting with 3rd reseeding and ending with 6th one.
(§10) For testing, 5 μL of a bacterial suspension in the stationary growth phase was transferred to 1 mL of a sterile MH medium and incubated until the exponential growth phase was attained (3 to 5 h, 37° C., stirring at 150 rpm). To estimate the microorganism concentration, the optical density (A) of the resulting bacterial culture was measured at a wavelength of 595 nm. […]

Data set [9] relates to Micrococcus luteus BKM Ac-2230. Described as above. The data set is classed as cell-based. The procedure: as §4, §5, §6, §7, §8, §9, §10
In data set [10] the test system is Herpes Simplex Virus type 2 strain G (No. VR-734 ATCC). Kind of data set: Antiviral activity, virus cytopathogenic action in Vero cells. Format: cell-based. The following applies: 48 hours. The procedure:
[…] used in the study were used Herpes Simplex Virus type 1 (the Collection of Microorganisms at the Scientific Research Institute of Virology, strain EC), Herpes Simplex Virus type 2 strain G (No. VR-734 ATCC), and human cytomegalovirus strain AD169 (No. VR-538 ATCC). Herpes Simplex viruses type 1 and type 2 were cultured in Vero cells. The cells were incubated in MEM Eagle growth medium (MEM, BioloT, St-Petersburg, 1.3.3) supplemented with 10% fetal bovine serum (BioloT, St-Petersburg, 1.3.12) in Sanyo MCO-15AC gas-flow thermostat (37° C., 5% CO2) (Tokyo, Japan). A seed dose was 2×10^5 cells/ml in the starting inoculum or 2×10^4 cells/well. Herpes Simplex viruses were cultured under the same conditions in the MEM medium without serum (maintenance medium). Starting viral titers were 10^7 TCID50/ml.
For DMSO-soluble preparations, stock solutions were prepared in a concentration of 10 mM in DMSO. For water-soluble preparations, a stock solution prepared had the same concentration in the MEM medium (Minimal Essential Medium) for cell cultures. To control cytotoxicity (see below), the stock solution was diluted in the medium to a concentration of 100 μM and ten-fold serial dilutions of the preparations were made in the MEM medium (for DMSO-soluble compounds—in the MEM medium comprising 3% DMSO). The following concentrations of the preparations were used in the study of […]: if toxicity was not found, the concentrations of 100 μM preparations were 100, 10 and 1 μM; if toxicity was detected, the concentrations of 100 μM preparations were 10, 1, and 0.1 μM. Acyclovir (10 μg/ml) was used for Herpes Simplex viruses of both types as a reference preparation to control the viral model validity.
To study antiviral activity, plate wells with a cell monolayer were added with the preparations in an amount of 0.1 ml/well. To compensate a reduction in the concentration of the preparations, which takes place in the following addition of viruses, twofold concentrations of compounds (i.e. 200, 20 and 2 or 20, 2 and 0.2 μM for […] concentrations of 100 μM preparations, respectively) were used, incubated for an hour and then were infected with the examined 0.1 ml/well viruses in doses 1, 10 and 100 TCID50 (50% tissue infectious dose).
The virus-specific cytogenic action was manifested in an increase in the size of cells, their rounding, and detachment from a substrate. These morphological characteristics served as their marked difference from the cells subjected to a toxic action of high concentrations of the examined preparations. The latter acquired spindle-like shape, lost contacts with neighboring cells of the monolayer, and their boundaries became more distinct.
Intensity of the virus-specific changes in the cells were semi-quantified using a 4-score system: 0—CPA (cytopathogenic action) is not detected; 1—up to 25% virus-infected monolayer; 2—from 25% to 50%; 3—from 50% to 75%; and 4—from 75% to 100%. The antiviral activity of a compound was evaluated according to their ability to reduce the manifestation of cytopathogenic action in the plate wells compared to the control values. Differences with the control values by 1 score and more were considered to be significant.

Where [11] appears, read: MH medium, 20 h, 37° C., 100% growth inhibition.
[12] abbreviates: no colonies on agarized MH medium.

As a reminder, the MIC is the least concentration at which growth counts as inhibited. For the molecule `C=CC1=C(C)c2cc3[n-]c(cc4[n-]c(cc5nc(cc1n2)C(C)=C5C=C)c(C)c4CCC(=O)N[C@@H](CCC(=O)NCCO)C(=O)NCCO)c(CCC(=O)N[C@@H](CCC(=O)NCCO)C(=O)NCCO)c3C.[Cl-].[Fe+3]` [XI, 6,7-bis-[(Di-2-hydroxyethylamide)-L-glutamyl]-Protohemin (IX)], the minimum inhibitory concentration (MIC) in [1] is 33.3 µM; in the data set on Escherichia coli 4300, greater than 50.0 µM; in data set [2], greater than 50.0 µM; in data set [3], 0.39 µM; in data set [4], 12.5 µM; in data set [5], 12.5 µM. Moreover, the MIC in [6] is 6.25 µM; in data set [7], greater than 50.0 µM. Moreover, in the data set “Water solubility”, the water solubility result was “water-insoluble”.
In general, MBC refers to the lowest tested concentration that kills the bacteria rather than only halting them. As for “6,7-bis-[(Dimethyl Ester N^α-L-Glycyl)-L-glutamyl]-Protohemin (IX) [XIV]”, the MIC was 6.3 µM in data set [8] (setting [11]); 1.6 µM in [9] (setting [11]); 3.12 µM in data set [1]; greater than 50.0 µM with Escherichia coli 4300; 2.6 µM in data set [2]; 0.39 µM in [3]. Further, the MIC was 2.6 µM in data set [4], 3.12 µM in data set [5], 1.04 µM in data set [6] and greater than 50.0 µM in data set [7]. In addition, the minimal bactericidal concentration (MBC) in data set [8] (setting [12]) is 25 µM; in data set [9] (setting [12]), 6.3 µM. For the same molecule, in “Water solubility”, the water solubility result was “water-insoluble”.
With “6,7-bis-[(Diamide N^α-L-Glycyl)-L-glutamyl]-Protohemin (IX) [XIII]”, the MIC is 12.5 µM in data set [1]; greater than 50.0 µM against Escherichia coli 4300; 12.5 µM in [2]; 12.5 µM in data set [3]; 50 µM in [4]; 83 µM in data set [5]. Further, the figures for the minimum inhibitory concentration (MIC) in data set [6] and in data set [7] were 12.5 µM and greater than 50.0 µM, respectively. For the same molecule, the “manifestation of the virus CPA” value in data set [10] (HSV-2, virus dose 1, concentration 0.1 μM) was 1 (up to 25% virus-infected monolayer); in [10] (HSV-2, virus dose 1, concentration 1 μM) it was 1 (up to 25% virus-infected monolayer); in [10] (HSV-2, virus dose 1, concentration 10 μM), 0.5 scores; in data set [10] (HSV-2, virus dose 10, concentration 0.1 μM), 2 (from 25% to 50%); in data set [10] (HSV-2, virus dose 10, concentration 1 μM), 2 (from 25% to 50%); in data set [10] (HSV-2, virus dose 10, concentration 10 μM) it was 1^1 (up to 25% virus-infected monolayer). In addition, the “manifestation of the virus CPA” value in data set [10] (HSV-2, virus dose 100, concentration 0.1 μM) is 3 (from 50% to 75%); in data set [10] (HSV-2, virus dose 100, concentration 1 μM), 3 (from 50% to 75%); in data set [10] (HSV-2, virus dose 100, concentration 10 μM) it was 3 (from 50% to 75%). For the same molecule, in the data set “Water solubility”, the water solubility result is given as “water-soluble”.
